Test results: ChEMBL document CHEMBL1132301, “Carbonic anhydrase inhibitors. Synthesis of water-soluble, topically effective, intraocular pressure-lowering aromatic/heterocyclic sulfonamides containing cationic or anionic moieties: is the tail more important than the ring?” (J Med Chem, 1999)

What was measured:
Oryctolagus cuniculus [1] = species on record: Oryctolagus cuniculus; assay type: functional, Eye
Description: Drug concentration was tested in ocular fluids and tissues after 1 hour following the corneal application in normotensive albino rabbits on aqueous humor

Oryctolagus cuniculus [2] = species on record: Oryctolagus cuniculus; assay type: functional, Eye; remark: listed apart in the source
Description: Drug concentration was tested in ocular fluids and tissues after 1 hour following the corneal application in normotensive albino rabbits on cilirary process

Oryctolagus cuniculus [3] = species on record: Oryctolagus cuniculus; assay type: functional, Eye; remark: listed apart in the source
Description: Drug concentration was tested in ocular fluids and tissues after 1 hour following the corneal application in normotensive albino rabbits on cornea

Oryctolagus cuniculus [4] = species on record: Oryctolagus cuniculus; assay type: functional, Eye; remark: listed apart in the source
Description: Drug concentration was tested in ocular fluids and tissues after 2 hour following the corneal application in normotensive albino rabbits on aqueous humor

Oryctolagus cuniculus [5] = species on record: Oryctolagus cuniculus; assay type: functional, Eye; remark: listed apart in the source
Description: Drug concentration was tested in ocular fluids and tissues after 2 hour following the corneal application in normotensive albino rabbits on cilirary process

Oryctolagus cuniculus [6] = species on record: Oryctolagus cuniculus; assay type: functional, Eye; remark: listed apart in the source
Description: Drug concentration was tested in ocular fluids and tissues after 2 hour following the corneal application in normotensive albino rabbits on cornea

Oryctolagus cuniculus [7] = species on record: Oryctolagus cuniculus; assay type: functional, Eye; remark: listed apart in the source
Description: In vivo fall of IOP of Glaucomatous rabbits after treatment with 1 drop(50 microL) of 2% solution of CA inhibitor with pH value 7.4 into the eye at 0 min

Oryctolagus cuniculus [8] = species on record: Oryctolagus cuniculus; assay type: functional, Eye; remark: listed apart in the source
Description: In vivo fall of IOP of Glaucomatous rabbits after treatment with 1 drop(50 microL) of 2% solution of CA inhibitor with pH value 7.4 into the eye at 30 min

Oryctolagus cuniculus [9] = species on record: Oryctolagus cuniculus; assay type: functional, Eye; remark: listed apart in the source
Description: In vivo fall of IOP of Glaucomatous rabbits after treatment with 1 drop(50 microL) of 2% solution of CA inhibitor with pH value 7.4 into the eye at 60 min

Oryctolagus cuniculus [10] = species on record: Oryctolagus cuniculus; assay type: functional, Eye; remark: listed apart in the source
Description: In vivo fall of IOP of Glaucomatous rabbits after treatment with 1 drop(50 microL) of 2% solution of CA inhibitor with pH value 7.4 into the eye at 90 min.

Oryctolagus cuniculus [11] = species on record: Oryctolagus cuniculus; assay type: functional, Eye; remark: listed apart in the source
Description: In vivo fall of IOP of normotensive rabbits after treatment with 1 drop(50 microL) of 2% solution of CA inhibitor with pH value 8.4 into the eye at 60 min

Oryctolagus cuniculus [12] = species on record: Oryctolagus cuniculus; assay type: functional, Eye; remark: listed apart in the source
Description: In vivo fall of IOP of normotensive rabbits after treatment with 1 drop(50 microL) of 2% solution of CA inhibitor with pH value 8.4 into the eye at 90 min.

Oryctolagus cuniculus [13] = species on record: Oryctolagus cuniculus; assay type: functional, Eye; remark: listed apart in the source
Description: In vivo fall of IOP of normotensive rabbits after treatment with 1 drop(50 microL) of 2% solution of CA inhibitor with pH value 7.4 into the eye at 0 min

Oryctolagus cuniculus [14] = species on record: Oryctolagus cuniculus; assay type: functional, Eye; remark: listed apart in the source
Description: In vivo fall of IOP of normotensive rabbits after treatment with 1 drop(50 microL) of 2% solution of CA inhibitor with pH value 7.4 into the eye at 60 min

Oryctolagus cuniculus [15] = species on record: Oryctolagus cuniculus; assay type: functional, Eye; remark: listed apart in the source
Description: In vivo fall of IOP of normotensive rabbits after treatment with 1 drop(50 microL) of 2% solution of CA inhibitor with pH value 7.4 into the eye at 90 min.

Oryctolagus cuniculus [16] = species on record: Oryctolagus cuniculus; assay type: functional, Eye; remark: listed apart in the source
Description: In vivo fall of IOP of normotensive rabbits after treatment with 1 drop(50 microL) of 2% solution of CA inhibitor with pH value 8.4 into the eye at 0 min

Oryctolagus cuniculus [17] = species on record: Oryctolagus cuniculus; assay type: functional, Eye; remark: listed apart in the source
Description: In vivo fall of IOP of normotensive rabbits after treatment with 1 drop(50 microL) of 2% solution of CA inhibitor with pH value 8.4 into the eye at 30 min

Oryctolagus cuniculus [18] = species on record: Oryctolagus cuniculus; assay type: functional, Eye; remark: listed apart in the source
Description: In vivo fall of IOP of normotensive rabbits after treatment with 1 drop(50 microL) of 2% solution of CA inhibitor with pH value 7.4 into the eye at 30 min

Oryctolagus cuniculus [19] = test: In vivo fall of IOP of normotensive rabbits after treatment with 1 drop(50 microL) of […]% solution of CA inhibitor with pH value 8.5 into the eye at 60 min; assay type: functional
[20] = Compound was tested for solubility in pH buffer, at 25 degree C.(As hydrochloride salts); assay type: ADME
[21] = Compound was tested for solubility in pH buffer, at 25 degree C.(As sodium hydroxylate salts); assay type: ADME
Carbonic anhydrase 4 = target: T1, Carbonic anhydrase 4 (Bos taurus, UniProt Q95323)
T1 sequence (Q95323 whole entry): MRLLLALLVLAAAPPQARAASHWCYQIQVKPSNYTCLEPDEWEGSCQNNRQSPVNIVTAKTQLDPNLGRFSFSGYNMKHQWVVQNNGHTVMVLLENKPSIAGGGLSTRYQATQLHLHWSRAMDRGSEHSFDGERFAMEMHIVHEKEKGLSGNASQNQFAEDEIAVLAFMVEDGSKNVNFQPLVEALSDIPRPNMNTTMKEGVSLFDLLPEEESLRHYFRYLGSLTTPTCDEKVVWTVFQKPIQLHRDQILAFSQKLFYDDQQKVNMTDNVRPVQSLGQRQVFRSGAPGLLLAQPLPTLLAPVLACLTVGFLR
Description: Inhibitory activity against bovine lung microsomes carbonic anhydrase isozyme IV (bCA IV).

Carbonic anhydrase 2 = Carbonic anhydrase 2 (Homo sapiens, UniProt P00918)
Description: Inhibitory activity against human recombinant carbonic anhydrase II

Carbonic anhydrase 1 = Carbonic anhydrase 1 (Homo sapiens, UniProt P00915)
Description: Inhibitory activity against human cloned carbonic anhydrase isozyme I (hCA I, cytosolic form).

[22] = octanol/water
Description: Partition coefficient (logD) (chloroform/buffer)

Oryctolagus cuniculus [23] = species on record: Oryctolagus cuniculus
Description: Compound was tested in vitro for corneal permeability of compound across the Denuded epithelial cornea obtained from rabbit

Oryctolagus cuniculus [24] = species on record: Oryctolagus cuniculus; remark: listed apart in the source
Description: Compound was tested in vitro for corneal permeability of compound across the intact cornea obtained from rabbit

Oryctolagus cuniculus [25] = species on record: Oryctolagus cuniculus; assay type: functional, Eye; remark: listed apart in the source
Description: In vivo fall of IOP of Glaucomatous rabbits after treatment with 1 drop(50 microL) of 2% solution of CA inhibitor with pH value 5.5 into the eye at 0 min

Oryctolagus cuniculus [26] = species on record: Oryctolagus cuniculus; assay type: functional, Eye; remark: listed apart in the source
Description: In vivo fall of IOP of Glaucomatous rabbits after treatment with 1 drop(50 microL) of 2% solution of CA inhibitor with pH value 5.5 into the eye at 30 min

Oryctolagus cuniculus [27] = species on record: Oryctolagus cuniculus; assay type: functional, Eye; remark: listed apart in the source
Description: In vivo fall of IOP of Glaucomatous rabbits after treatment with 1 drop(50 microL) of 2% solution of CA inhibitor with pH value 5.5 into the eye at 60 min

Oryctolagus cuniculus [28] = species on record: Oryctolagus cuniculus; assay type: functional, Eye; remark: listed apart in the source
Description: In vivo fall of IOP of Glaucomatous rabbits after treatment with 1 drop(50 microL) of 2% solution of CA inhibitor with pH value 5.5 into the eye at 90 min.

Oryctolagus cuniculus [29] = species on record: Oryctolagus cuniculus; assay type: functional, Eye; remark: listed apart in the source
Description: In vivo fall of IOP of normotensive rabbits after treatment with 1 drop(50 microL) of 2% solution of CA inhibitor with pH value 5.5 into the eye at 60 min

Oryctolagus cuniculus [30] = species on record: Oryctolagus cuniculus; assay type: functional, Eye; remark: listed apart in the source
Description: In vivo fall of IOP of normotensive rabbits after treatment with 1 drop(50 microL) of 2% solution of CA inhibitor with pH value 5.5 into the eye at 90 min.

Oryctolagus cuniculus [31] = species on record: Oryctolagus cuniculus; assay type: functional, Eye; remark: listed apart in the source
Description: In vivo fall of IOP of normotensive rabbits after treatment with 1 drop(50 microL) of 2% solution of CA inhibitor with pH value 5.5 into the eye at 30 min

Oryctolagus cuniculus [32] = species on record: Oryctolagus cuniculus; assay type: functional, Eye; remark: listed apart in the source
Description: In vivo fall of IOP of normotensive rabbits after treatment with 1 drop(50 microL) of 2% solution of CA inhibitor with pH value 5.9 into the eye at 0 min

Oryctolagus cuniculus [33] = species on record: Oryctolagus cuniculus; assay type: functional, Eye; remark: listed apart in the source
Description: In vivo fall of IOP of normotensive rabbits after treatment with 1 drop(50 microL) of 2% solution of CA inhibitor with pH value 5.9 into the eye at 30 min

Oryctolagus cuniculus [34] = species on record: Oryctolagus cuniculus; assay type: functional, Eye; remark: listed apart in the source
Description: In vivo fall of IOP of normotensive rabbits after treatment with 1 drop(50 microL) of 2% solution of CA inhibitor with pH value 5.9 into the eye at 60 min

Oryctolagus cuniculus [35] = species on record: Oryctolagus cuniculus; assay type: functional, Eye; remark: listed apart in the source
Description: In vivo fall of IOP of normotensive rabbits after treatment with 1 drop(50 microL) of 2% solution of CA inhibitor with pH value 5.9 into the eye at 90 min.

Carbonic anhydrase 1, sequence (P00915 whole entry): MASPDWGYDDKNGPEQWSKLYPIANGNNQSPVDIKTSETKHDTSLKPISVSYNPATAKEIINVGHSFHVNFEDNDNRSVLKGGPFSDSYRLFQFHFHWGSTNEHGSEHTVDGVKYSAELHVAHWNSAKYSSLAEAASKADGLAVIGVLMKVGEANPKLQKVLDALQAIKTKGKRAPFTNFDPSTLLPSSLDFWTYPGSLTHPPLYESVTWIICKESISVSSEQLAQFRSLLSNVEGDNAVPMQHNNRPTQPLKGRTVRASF

CCN(C(=O)c1cccc(C(=O)[O-])n1)C1CC(C)S(=O)(=O)c2sc(S(N)(=O)=O)cc21.[Na+] (centres undefined)
Drug concentration (Oryctolagus cuniculus [1]): 278 µM | Drug concentration (Oryctolagus cuniculus [2]): 47 µM | Drug concentration (Oryctolagus cuniculus [3]): 113 µM | Drug concentration (Oryctolagus cuniculus [4]): 39 µM | Drug concentration (Oryctolagus cuniculus [5]): 10 µM | Drug concentration (Oryctolagus cuniculus [6]): 44 µM | Delta IOP (Oryctolagus cuniculus [7]): 0 mmHg | Delta IOP (Oryctolagus cuniculus [8]): 6.5 mmHg | Delta IOP (Oryctolagus cuniculus [9]): 10.1 mmHg | Delta IOP (Oryctolagus cuniculus [10]): 11.8 mmHg | Delta IOP (Oryctolagus cuniculus [11]): 7.7 mmHg | Delta IOP (Oryctolagus cuniculus [12]): 9.9 mmHg | Delta IOP (Oryctolagus cuniculus [13]): 0 mmHg | Delta IOP (Oryctolagus cuniculus [14]): 7.2 mmHg | Delta IOP (Oryctolagus cuniculus [15]): 9.8 mmHg | Delta IOP (Oryctolagus cuniculus [16]): 0 mmHg | Delta IOP (Oryctolagus cuniculus [17]): 3.6 mmHg | Delta IOP (Oryctolagus cuniculus [18]): 3.5 mmHg

NS(=O)(=O)c1ccc(NC(=O)c2cccc(C(=O)[O-])n2)c(F)c1.[Na+]
pDelta IOP (Oryctolagus cuniculus [19]): 4.8 mmHg

CCN(C(=O)c1cccc(C(=O)O)n1)C1CC(C)S(=O)(=O)c2sc(S(N)(=O)=O)cc21 (centres undefined)
solubility [20]: 58 mM | solubility [21]: 64 mM | Ki (Carbonic anhydrase 4): 0.017 µM | Ki (Carbonic anhydrase 2): 0.005 µM | Ki (Carbonic anhydrase 1): 0.4 µM | logD [22]: 1.736 | Kin (Oryctolagus cuniculus [23]): 5900 h⁻¹ | Kin (Oryctolagus cuniculus [24]): 2800 h⁻¹

CCN(C(=O)c1cccc(C(=O)O)n1)C1CC(C)S(=O)(=O)c2sc(S(N)(=O)=O)cc21.Cl (centres undefined)
Delta IOP (Oryctolagus cuniculus [25]): 0 mmHg | Delta IOP (Oryctolagus cuniculus [26]): 6.5 mmHg | Delta IOP (Oryctolagus cuniculus [27]): 9.9 mmHg | Delta IOP (Oryctolagus cuniculus [28]): 12.1 mmHg | Delta IOP (Oryctolagus cuniculus [29]): 6.8 mmHg | Delta IOP (Oryctolagus cuniculus [30]): 9.1 mmHg | Delta IOP (Oryctolagus cuniculus [31]): 3.5 mmHg

Cl.NS(=O)(=O)c1nnc(NC(=O)CCN2C(=O)c3cccnc3C2=O)s1
Drug concentration (Oryctolagus cuniculus [1]): 280 µM | Drug concentration (Oryctolagus cuniculus [2]): 50 µM | Drug concentration (Oryctolagus cuniculus [3]): 158 µM | Drug concentration (Oryctolagus cuniculus [4]): 42 µM | Drug concentration (Oryctolagus cuniculus [5]): 12 µM | Drug concentration (Oryctolagus cuniculus [6]): 45 µM

NS(=O)(=O)c1nc2ccc(N3C(=O)c4cccnc4C3=O)cc2s1.O=S(=O)(O)C(F)(F)F
Delta IOP (Oryctolagus cuniculus [32]): 0 mmHg | Delta IOP (Oryctolagus cuniculus [33]): 2 mmHg | Delta IOP (Oryctolagus cuniculus [34]): 4.4 mmHg | Delta IOP (Oryctolagus cuniculus [35]): 4 mmHg
